Data on nine compounds can be found in patent publication US7928060B2, “Amylin family polypeptide-6 (AFP-6) analogs and methods of making and using them” (Amylin Pharmaceuticals, Inc., priority 2004, dated 2011).

Where two headings read alike, the source gives them in different places. Bridge positions count the residues as written; N and C are the ends. Ends that are not written are not given here. Peptide text beside a SMILES is read from it.

In one test the target is adrenomedullin receptor (Homo sapiens, UniProt O60895+Q16602). Briefly: adrenomedullin (ADM) receptor binding assay. The note with it: Table 6.
Sequence of adrenomedullin receptor (Q16602 23-461): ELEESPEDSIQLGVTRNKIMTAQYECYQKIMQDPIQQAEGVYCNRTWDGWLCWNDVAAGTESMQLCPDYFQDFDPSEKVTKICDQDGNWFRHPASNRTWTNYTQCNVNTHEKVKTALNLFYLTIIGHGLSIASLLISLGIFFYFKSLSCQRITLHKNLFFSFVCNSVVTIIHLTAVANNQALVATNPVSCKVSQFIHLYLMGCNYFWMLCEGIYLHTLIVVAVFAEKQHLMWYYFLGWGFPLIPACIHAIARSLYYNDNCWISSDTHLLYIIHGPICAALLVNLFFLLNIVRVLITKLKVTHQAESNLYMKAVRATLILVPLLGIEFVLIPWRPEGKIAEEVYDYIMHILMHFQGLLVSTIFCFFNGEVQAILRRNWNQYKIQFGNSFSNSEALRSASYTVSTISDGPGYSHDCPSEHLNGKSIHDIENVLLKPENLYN
Sequence of adrenomedullin receptor (O60895 43-175): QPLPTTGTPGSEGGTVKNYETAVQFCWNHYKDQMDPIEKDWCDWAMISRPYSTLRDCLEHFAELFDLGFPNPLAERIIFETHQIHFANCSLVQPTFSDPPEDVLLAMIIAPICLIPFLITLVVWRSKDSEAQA
For another test, the target named is T1, amylin receptors (Rattus norvegicus, UniProt P32214).
T1 construct: This basal forebrain tissue, containing the nucleus accumbens and surrounding regions, was weighed and homogenized; from tissue; host or cells: rat basal forebrain (nucleus accumbens) membranes, male Sprague-Dawley rats
T1 sequence (P32214 25-516): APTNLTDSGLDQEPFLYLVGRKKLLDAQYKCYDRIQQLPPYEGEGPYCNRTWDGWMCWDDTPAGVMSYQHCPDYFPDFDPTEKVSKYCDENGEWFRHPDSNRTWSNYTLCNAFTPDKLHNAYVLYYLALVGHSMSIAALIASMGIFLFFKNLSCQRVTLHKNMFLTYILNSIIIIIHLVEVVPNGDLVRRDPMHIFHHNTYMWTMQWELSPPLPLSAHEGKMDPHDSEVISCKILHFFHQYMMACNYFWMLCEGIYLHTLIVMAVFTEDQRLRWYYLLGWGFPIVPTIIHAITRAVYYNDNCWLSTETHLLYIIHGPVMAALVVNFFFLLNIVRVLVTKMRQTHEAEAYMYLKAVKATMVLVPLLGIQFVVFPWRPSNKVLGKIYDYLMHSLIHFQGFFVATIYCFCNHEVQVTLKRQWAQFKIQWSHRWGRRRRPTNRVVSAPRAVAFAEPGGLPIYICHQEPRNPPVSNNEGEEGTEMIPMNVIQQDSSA
The test can be described thus: amylin radioligand binding assay (125I-rat amylin, nucleus accumbens membranes). The note with it: Table 6; read-out: Amylin receptor binding. As to the method:
Unlabeled peptides were obtained from BACHEM Inc. (Torrance, Calif.).
Male Sprague-Dawley® rats (200-250) grams were sacrificed by decapitation. Brains were removed and place in cold phosphate-buffered saline (PBS). From the ventral surface, cuts were made rostral to the hypothalamus, bounded laterally by the olfactory tracts and extending at a 45° angle medially from these tracts. […] Membranes were washed three times in fresh buffer by centrifugation for 15 minutes at 48,000×g. The final membrane pellet was resuspended in 20 mM HEPES buffer containing 0.2 mM phenylmethylsulfonyl fluoride (PMSF).
Solutions were incubated for 60 minutes at 2 C. […] Filters were washed immediately before filtration with 5 ml cold PBS, and immediately after filtration with 15 ml cold PBS. […] Competition curves were generated by measuring binding in the presence of 10^−12 to 10^−6 M unlabeled test compound and were analyzed by nonlinear regression using a 4-parameter logistic equation (INPLOT program; […] Software, San Diego, Calif.).

Test [1] deals with T2, calcitonin receptor (Rattus norvegicus, UniProt P32214).
T2 sequence (P32214 25-516): T1 sequence (P32214 25-516)
The test can be described thus: calcitonin receptor binding assay (rCalcitonin RBA). The note with it: Table 6; read-out: CT receptor binding.

Test [2] concerns calcitonin receptor. Briefly: cAMP production in CHO cells (AlphaScreen). The class given is cell-based. The following applies: CHO, 30,000 cells/well. For orientation: Cyclic AMP is a second messenger, typically raised through Gs and lowered through Gi signalling.

For `CSCC[C@H](NC(=O)[C@H](CC(C)C)NC(=O)[C@H](CCC(N)=O)NC(=O)[C@H](Cc1c[nH]c2ccccc12)NC(=O)[C@H](CC(C)C)NC(=O)[C@H](CCCNC(=N)N)NC(=O)[C@H](Cc1c[nH]cn1)NC(=O)[C@H](CO)NC(=O)[C@H](CC(C)C)NC(=O)[C@H](CC(N)=O)NC(=O)[C@H](CCC(N)=O)NC(=O)[C@@H](NC(=O)[C@H](CCC(N)=O)NC(=O)[C@@H]1CSSC[C@H](NC(=O)CNC(=O)[C@@H](N)C(C)C)C(=O)N[C@@H](C(C)C)C(=O)N[C@@H](CC(C)C)C(=O)NCC(=O)N[C@@H]([C@@H](C)O)C(=O)N1)C(C)C)C(=O)NCC(=O)N1CCC[C@H]1C(=O)N[C@@H](C)C(=O)NCC(=O)N[C@@H](CCCNC(=N)N)C(=O)N[C@@H](CCC(N)=O)C(=O)N[C@@H](CC(=O)O)C(=O)N[C@@H](CO)C(=O)N[C@@H](C)C(=O)N1CCC[C@H]1C(=O)N[C@H](C(=O)N[C@@H](CCC(=O)O)C(=O)N1CCC[C@H]1C(=O)N[C@@H](CO)C(=O)N[C@@H](CO)C(=O)N1CCC[C@H]1C(=O)N[C@@H](Cc1c[nH]cn1)C(=O)N[C@@H](CO)C(=O)N[C@@H](Cc1ccc(O)cc1)C(N)=O)C(C)C` [compound 35] (H-VGCVLGTCQVQNLSHRLWQLMGPAGRQDSAPVEPSSPHSY-NH2; disulfide 3-8 (inferred)), the IC50 at adrenomedullin receptor stood at 37 nM; at amylin receptors, 17 nM; at calcitonin receptor [1], 153 nM.

Turning to `CC(C)C[C@H](NC(=O)[C@H](CCC(N)=O)NC(=O)[C@H](C)NC(=O)[C@H](CCC(N)=O)NC(=O)[C@@H](N)[C@@H](C)O)C(=O)N[C@@H](CC(C)C)C(=O)N[C@@H](CCCNC(=N)N)C(=O)N[C@H](C(=O)NCC(=O)N[C@H]1CSSC[C@@H](C(=O)N[C@@H](CCC(N)=O)C(=O)N[C@H](C(=O)N[C@@H](CCC(N)=O)C(=O)N[C@@H](CC(N)=O)C(=O)N[C@@H](CC(C)C)C(=O)N[C@@H](CO)C(=O)N[C@@H](Cc2c[nH]cn2)C(=O)N[C@@H](CCCNC(=N)N)C(=O)N[C@@H](CC(C)C)C(=O)N[C@@H](Cc2c[nH]c3ccccc23)C(=O)N[C@@H](CCC(N)=O)C(=O)N[C@@H](CC(C)C)C(=O)N[C@@H](CC(=O)O)C(=O)N[C@@H](CO)C(=O)N[C@@H](C)C(=O)N2CCC[C@H]2C(=O)N[C@H](C(=O)N[C@@H](CC(=O)O)C(=O)N2CCC[C@H]2C(=O)N[C@@H](CO)C(=O)N[C@@H](CO)C(=O)N2CCC[C@H]2C(=O)N[C@@H](Cc2c[nH]cn2)C(=O)N[C@@H](CO)C(=O)N[C@@H](Cc2ccc(O)cc2)C(N)=O)C(C)C)C(C)C)NC(=O)[C@H]([C@@H](C)O)NC(=O)CNC(=O)[C@H](CC(C)C)NC(=O)[C@H](C(C)C)NC1=O)C(C)C` [compound 17] (H-TQAQLLRVGCVLGTCQVQNLSHRLWQLDSAPVDPSSPHSY-NH2; disulfide 10-15 (inferred); N-terminus assumed), the IC50 was 304 nM on adrenomedullin receptor and above 1000 nM on calcitonin receptor [1].

With `CC(C)C[C@@H]1NC(=O)[C@H](CC(N)=O)NC(=O)CNC(=O)[C@@H](NC(=O)CNC(=O)[C@@H](N)C(C)C)CSSC[C@@H](C(=O)N[C@@H](CCC(N)=O)C(=O)N[C@H](C(=O)N[C@@H](CCC(N)=O)C(=O)N[C@@H](CC(N)=O)C(=O)N[C@@H](CC(C)C)C(=O)N[C@@H](CO)C(=O)N[C@@H](Cc2c[nH]cn2)C(=O)N[C@@H](CCCNC(=N)N)C(=O)N[C@@H](CC(C)C)C(=O)N[C@@H](Cc2c[nH]c3ccccc23)C(=O)N[C@@H](CCC(N)=O)C(=O)N[C@@H](CC(C)C)C(=O)N[C@@H](CCCNC(=N)N)C(=O)N[C@@H](CCC(N)=O)C(=O)N[C@@H](CC(=O)O)C(=O)N[C@@H](CO)C(=O)N[C@@H](C)C(=O)N2CCC[C@H]2C(=O)N[C@H](C(=O)N[C@@H](CC(=O)O)C(=O)N2CCC[C@H]2C(=O)N[C@@H](CO)C(=O)N[C@@H](CO)C(=O)N2CCC[C@H]2C(=O)N[C@@H](Cc2c[nH]cn2)C(=O)N[C@@H](CO)C(=O)N[C@@H](Cc2ccc(O)cc2)C(N)=O)C(C)C)C(C)C)NC(=O)[C@H]([C@@H](C)O)NC(=O)[C@H](CO)NC1=O` [compound 29] (H-VGCGNLSTCQVQNLSHRLWQLRQDSAPVDPSSPHSY-NH2; disulfide 3-9 (inferred)), the results for the IC50 at adrenomedullin receptor and at calcitonin receptor [1] were at least 1000 nM and 9 nM, respectively.

With `CC(C)C[C@H](NC(=O)[C@H](CCC(N)=O)NC(=O)[C@H](Cc1c[nH]c2ccccc12)NC(=O)[C@H](CC(C)C)NC(=O)[C@H](CCCNC(=N)N)NC(=O)[C@H](Cc1c[nH]cn1)NC(=O)[C@H](CO)NC(=O)[C@H](CC(C)C)NC(=O)[C@H](CC(N)=O)NC(=O)[C@H](CCC(N)=O)NC(=O)[C@@H](NC(=O)[C@H](CCC(N)=O)NC(=O)[C@@H]1CSSC[C@H](NC(=O)CN)C(=O)N[C@@H](CC(N)=O)C(=O)N[C@@H]([C@@H](C)O)C(=O)N[C@@H](C)C(=O)N[C@@H]([C@@H](C)O)C(=O)N1)C(C)C)C(=O)N[C@@H](CCCNC(=N)N)C(=O)N[C@@H](CCC(N)=O)C(=O)N[C@@H](CC(=O)O)C(=O)N[C@@H](CO)C(=O)N[C@@H](C)C(=O)N1CCC[C@H]1C(=O)N[C@H](C(=O)N[C@@H](CCC(=O)O)C(=O)N1CCC[C@H]1C(=O)N[C@@H](CO)C(=O)N[C@@H](CO)C(=O)N1CCC[C@H]1C(=O)N[C@@H](Cc1c[nH]cn1)C(=O)N[C@@H](CO)C(=O)N[C@@H](Cc1ccc(O)cc1)C(N)=O)C(C)C` [compound 37] (H-GCNTATCQVQNLSHRLWQLRQDSAPVEPSSPHSY-NH2; disulfide 2-7 (inferred); N-terminus assumed), the values for the IC50 on adrenomedullin receptor, on amylin receptors and at calcitonin receptor [1] were at least 1000 nM, 39 nM and 121 nM, respectively.

As to “TQAQLLRVGCVLGTCQVQNLSHRLWQLMGPAGRQESAPVEPSSPHSY-NH2 (disulfide 10-15 (inferred)) [compound 32]”, the IC50 was 7.1 nM at adrenomedullin receptor and 16 nM at amylin receptors.

The EC50 is the concentration needed to bring the measured effect to its halfway point. In the case of `CC[C@H](C)[C@H](NC(=O)[C@H](C)NC(=O)[C@@H](NC(=O)[C@H](CCC(N)=O)NC(=O)[C@@H]1CCCN1C(=O)[C@H](Cc1ccccc1)NC(=O)[C@@H](NC(=O)[C@H](Cc1c[nH]cn1)NC(=O)[C@H](Cc1ccccc1)NC(=O)[C@H](CCCCN)NC(=O)[C@H](CC(N)=O)NC(=O)[C@H](Cc1ccccc1)NC(=O)[C@H](CC(=O)O)NC(=O)[C@H](CCC(N)=O)NC(=O)[C@@H](NC(=O)[C@H](Cc1ccc(O)cc1)NC(=O)[C@@H](NC(=O)CNC(=O)[C@H](CC(C)C)NC(=O)[C@H](CCSC)NC(=O)[C@@H]1CSSC[C@H](N)C(=O)NCC(=O)N[C@@H](CC(N)=O)C(=O)N[C@@H](CC(C)C)C(=O)N[C@@H](CO)C(=O)N[C@@H]([C@@H](C)O)C(=O)N1)[C@@H](C)O)[C@@H](C)O)[C@@H](C)O)[C@@H](C)O)C(=O)NCC(=O)N[C@H](C(=O)NCC(=O)N[C@@H](C)C(=O)N1CCC[C@H]1C(N)=O)C(C)C` [SEQ ID NO: 6], the half-maximal effective concentration (EC50) with calcitonin receptor [2] (average of three experiments, read-out: Average EC50) was 0.097 nM; in the test on calcitonin receptor [2] (read-out: Experiment 1 EC50), 0.077 nM; in the test on calcitonin receptor [2] (read-out: Experiment 2 EC50), 0.14 nM; with calcitonin receptor [2] (read-out: Experiment 3 EC50) it was 0.075 nM.

With “H-TQAQLLRVGMVLGTMQVQNLSHRLWQLMGPAGRQDSAPVDPSSPHSY-NH2 [compound 25]”, the figures for the IC50 on adrenomedullin receptor and on calcitonin receptor [1] were 120 nM and above 1000 nM, respectively.

On to `CC(C)C[C@H](NC(=O)[C@H](CCC(N)=O)NC(=O)[C@H](Cc1c[nH]c2ccccc12)NC(=O)[C@H](CC(C)C)NC(=O)[C@H](CCCNC(=N)N)NC(=O)[C@H](Cc1c[nH]cn1)NC(=O)[C@H](CO)NC(=O)[C@H](CC(C)C)NC(=O)[C@H](CC(N)=O)NC(=O)[C@H](CCC(N)=O)NC(=O)[C@@H](NC(=O)[C@H](CCC(N)=O)NC(=O)[C@@H]1CSSC[C@H](NC(=O)CNC(=O)[C@@H](N)C(C)C)C(=O)N[C@@H](C(C)C)C(=O)N[C@@H](CC(C)C)C(=O)NCC(=O)N[C@@H]([C@@H](C)O)C(=O)N1)C(C)C)C(=O)N[C@@H](CCCNC(=N)N)C(=O)N[C@@H](CCC(N)=O)C(=O)N[C@@H](CC(=O)O)C(=O)N[C@@H](CO)C(=O)N[C@@H](C)C(=O)N1CCC[C@H]1C(=O)N[C@H](C(=O)N[C@@H](CC(=O)O)C(=O)N1CCC[C@H]1C(=O)N[C@@H](CO)C(=O)N[C@@H](CO)C(=O)N1CCC[C@H]1C(=O)N[C@@H](Cc1c[nH]cn1)C(=O)N[C@@H](CO)C(=O)N[C@@H](Cc1ccc(O)cc1)C(N)=O)C(C)C` [compound 18] (H-VGCVLGTCQVQNLSHRLWQLRQDSAPVDPSSPHSY-NH2; disulfide 3-8 (inferred); N-terminus assumed), for which the IC50 was at least 1000 nM at adrenomedullin receptor and 24 nM at calcitonin receptor [1].

On to “H-TQAQLLRVGCSNLSTCQVQNLSHRLWQLMGPAGRQDSAPVDPSSPHSY-NH2 (disulfide 10-16 (inferred)) [compound 20]”, for which the IC50 came out at 36 nM on adrenomedullin receptor and 16 nM on calcitonin receptor [1].
